14 compounds from patent US20240391931A1 (Bristol-Myers Squibb Company, priority 2021, published 2024) can be followed below.

For test [1], the target named is EGFR (Homo sapiens, UniProt P00533). Description: EGFR signaling (pEGFR Tyr1068/total EGFR MSD) in A431 cells. The conditions noted are these: for EC50: A431 cells, read-out: A431 pEGFR EC50; for Selectivity A431 EC50/BT474 EC50: ratio A431 pEGFR EC50 to BT474 pHER2 EC50; for Selectivity A431 EC50/HEKYVMA EC50: ratio A431 pEGFR EC50 to HEK YVMA pHER2 EC50. It is filed as cell-based. More on the design: endogenous in cells; host or cells: A431, N87. Here is the method: In addition to the engineered cell lines, the following cell lines were used: BT474 (human breast carcinoma), N87 (human gastric carcinoma), NCI-H1781 (human lung adenocarcinoma), and A431 (human epidermoid carcinoma); all cell lines were obtained from the American Type Culture Collection (ATCC, Manassas, VA). NCI-H1781 were grown in complete RPMI 1640 (Life Technologies, Carlsbad, CA) supplemented with 15% fetal bovine serum (FBS, Life Technologies, Carlsbad, CA) and 1% Penicillin-Streptomycin (P/S, Life Technologies, Carlsbad, CA). N87 cells were grown in complete RPMI 1640 supplemented with 10% FBS and 1% P/S. BT474 and A431 cells were grown in DMEM (Life Technologies, Carlsbad, CA) supplemented with 10% FBS and 1% P/S. All cells were maintained and propagated in a humidified 5% CO2 incubator at 37° C.
A431 Cells were plated in 96-well tissue-culture treated plates in full media for 6 h, then starved with media containing 0.1% FBS for overnight. Media was replaced with low serum media (1% FBS) containing compound at 10, 3.3, 1.1, 0.37, 0.12, 0.041, 0.014, 0.005 μM or DMSO control (0.1%). Cells were incubated for 1.5 hr, then stimulated with 100 ng/mL human EGF (PeproTech, Rocky Hill, NJ) for 10 minutes. Cells were washed with cold PBS, and lysed for 30 min on ice in complete MSD lysis buffer (prepared as described in HER2 Signaling Method); lysates were stored at −70° C. until further analysis. EGFR signaling was evaluated using phospho (Tyr 1068)/total EGFR whole cell lysate kit (Meso-Scale Discovery, Gaithersburg, MD). The phospho EGFR signal was normalized to total EGFR for each sample; results are reported as % DMSO control. The normalized data was fitted using a sigmoidal curve analysis program (Graph Pad Prism version 6) with variable Hill slope to determine EC50 values. The results are provided in Table 4, under column titled “A431-pEGFR EC50”.

Test [2] deals with HER2YVMA (Homo sapiens, UniProt P04626, INS775YVMA). As to the kind of experiment: HER2 signaling (pHER2) in Hek293-HER2YVMA cells. It is filed as cell-based. Also noted: expressed in transfected cells; host or cells: HEK293 (pool), Ba/F3 (clones), BEAS2B (clones); lentiviral vector pCDH-CMV-MCS-EF1-Neo. The conditions noted are these: 1.5 hr compound, 1% FBS, read-out: HEKYVMA pHER2 EC50. The procedure:
Cell culture, plasmid cloning, and lentiviral transduction were carried out according to standard procedures. The Human HER2 cDNA construct in pCMV6-Entry for the HER2 wildtype (WT) expression was obtained from Origene. The HER2 cDNA including the 12-nucleotide insertion corresponding to YVMA insertion (HER2YVMA) was codon optimized, synthesized and cloned by GenScript (Piscataway, NJ) in pcDNA3.1. The lentiviral constructs expressing HER2YVMA and HER2 WT were sub-cloned using PCR at System Biosciences (SBI, Mountainview, CA) into lentiviral vectors pCDH-CMV-MCS-EF1-Neo and lentiviral particles were generated.
Engineered lines expressing HER2YVMA and HER2 WT were prepared in HEK293 (human embryonic kidney cells), Ba/F3 (Interleukin 3 (IL3)-dependent murine pro B cell line), and BEAS2B (primary immortalized human bronchial epithelial cell line). Ba/F3, BEAS2B, and HEK293 cells were obtained from the American Type Culture Collection (ATCC, Manassas, VA). Parental Ba/F3 cells were grown in suspension in complete RPMI 1640 supplemented with 10% FBS and 1% P/S and 10 ng/ml interleukin 3 (IL3, Sigma-Aldrich). Hek293 and BEAS2B cells were grown as monolayers in DMEM supplemented with 10% FBS and 1% P/S. All cells were maintained and propagated in a humidified 5% CO2 incubator at 37° C.
To generate Ba/F3, BEAS2B, and Hek-293 cells engineered with lentivirus to express HER2 WT or HER2YVMA, the cells were transduced with lentiviruses at multiplicity of infection (MOI) of 1 or 10; transduced cells were selected and maintained with G418 ([…]) (Geneticin, Life Technologies, Carlsbad, CA). Ba/F3 engineered cells were subjected to gradual withdrawal of interleukin 3 (IL-3, Sigma-Aldrich). After selection, IL3 independent Ba/F3 HER2YVMA, and BEAS2B HER2YVMA cells were cloned by limiting dilution. Hek293 HER2YVMA cells were used as pool. HER2 and phospho HER2 levels were confirmed by flow cytometery and immunoassay (MSD, Meso-Scale Discovery, Rockville, Maryland).
HER2 signaling was assessed in BT474 and N87 cell lines which endogenously overexpress the HER2 wildtype (WT) protein, in NCI-H1781 cells which endogenously expresses a HER2 mutant protein containing a VC insertion in the kinase domain (HER2VC or G776delinsVC), and in engineered cell lines transduced to express the Her2 mutant protein containing the YVMA insertion (Hek293-HER2YVMA and BEAS2B-HER2YVMA).
BT474, N87, and NCI-H1781 were plated in 96-well tissue-culture treated plates (Corning Costar, Sigma-Aldrich) in full media and incubated overnight. Hek293-HER2YVMA and BEAS2B-HER2YVMA cells were plated in 96-well poly-D-lysine treated plates (BD Bioscience, San Jose, CA). For treatment with test compounds, the media was replaced with corresponding low serum media (1% FBS) containing test compound at 1.1, 0.37, 0.12, 0.041, 0.014, 0.005, 0.0014, 0.0005 μM or DMSO control (0.1%). Cells were incubated with compound for 1.5 hr at 37° C. After compound treatment, the media was removed and cells were lysed for 30 min on ice in complete MSD lysis buffer (prepared using MSD base lysis buffer (Meso-Scale Discovery) supplemented with cOmplete, EDTA-free Protease inhibitor cocktail (Roche), Phosphatase Inhibitor Cocktails 2 and 3 (Sigma-Aldrich), and 1 mM PMSF (Sigma-Aldrich)). Lysates were stored at −70° C. until further analysis.
HER2 signaling was evaluated using phospho (Tyr1248)/total ErbB2 whole cell lysate MSD plates (Meso-Scale Discovery, Gaithersburg, MD). The phospho HER2 signal was normalized to total HER2 for each sample; results are reported as % DMSO control. The normalized data was fitted using a sigmoidal curve analysis program (Graph Pad Prism version 6) with variable Hill slope to determine EC50 values.
The HER2 signaling results are provided in Table 4, under columns titled “BT474-pHER2 EC50”, “N87-pHER2 EC50”, and “NCI-H1781-pHER2 EC50”. […]

HER2YVMA, sequence (P04626 with tags, fused parts or gaps INS775YVMA): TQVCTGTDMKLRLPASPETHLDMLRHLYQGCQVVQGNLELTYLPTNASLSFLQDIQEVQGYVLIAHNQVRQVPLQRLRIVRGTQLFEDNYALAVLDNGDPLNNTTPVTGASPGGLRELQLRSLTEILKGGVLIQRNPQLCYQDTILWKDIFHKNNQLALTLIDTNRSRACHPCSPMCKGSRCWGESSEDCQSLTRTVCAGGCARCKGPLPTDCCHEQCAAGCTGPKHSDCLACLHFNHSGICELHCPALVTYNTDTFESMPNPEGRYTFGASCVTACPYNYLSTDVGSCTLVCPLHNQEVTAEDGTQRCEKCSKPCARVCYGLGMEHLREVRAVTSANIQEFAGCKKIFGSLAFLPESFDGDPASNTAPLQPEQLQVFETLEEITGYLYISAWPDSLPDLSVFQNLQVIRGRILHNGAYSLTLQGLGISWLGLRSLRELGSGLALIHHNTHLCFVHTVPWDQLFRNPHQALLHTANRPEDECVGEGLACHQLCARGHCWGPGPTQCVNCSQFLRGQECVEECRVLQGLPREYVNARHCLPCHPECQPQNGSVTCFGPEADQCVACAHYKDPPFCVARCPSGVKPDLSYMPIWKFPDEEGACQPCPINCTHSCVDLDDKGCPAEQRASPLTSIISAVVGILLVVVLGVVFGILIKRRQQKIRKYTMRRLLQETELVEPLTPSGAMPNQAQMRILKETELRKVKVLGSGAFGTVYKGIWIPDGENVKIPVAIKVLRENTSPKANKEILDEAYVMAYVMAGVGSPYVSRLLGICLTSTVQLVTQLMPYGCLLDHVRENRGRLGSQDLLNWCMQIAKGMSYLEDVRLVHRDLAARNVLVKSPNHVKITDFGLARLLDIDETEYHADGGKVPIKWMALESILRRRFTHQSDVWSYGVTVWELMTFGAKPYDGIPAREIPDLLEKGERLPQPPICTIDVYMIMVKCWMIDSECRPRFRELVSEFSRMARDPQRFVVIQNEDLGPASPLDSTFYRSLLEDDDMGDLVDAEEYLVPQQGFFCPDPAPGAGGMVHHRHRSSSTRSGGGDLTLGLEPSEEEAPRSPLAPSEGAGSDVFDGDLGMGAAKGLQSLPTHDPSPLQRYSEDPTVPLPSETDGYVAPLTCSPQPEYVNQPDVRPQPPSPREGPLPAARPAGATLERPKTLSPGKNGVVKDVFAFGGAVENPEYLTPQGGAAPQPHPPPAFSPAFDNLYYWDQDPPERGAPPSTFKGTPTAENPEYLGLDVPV
EGFR, sequence (P00533 25-1210): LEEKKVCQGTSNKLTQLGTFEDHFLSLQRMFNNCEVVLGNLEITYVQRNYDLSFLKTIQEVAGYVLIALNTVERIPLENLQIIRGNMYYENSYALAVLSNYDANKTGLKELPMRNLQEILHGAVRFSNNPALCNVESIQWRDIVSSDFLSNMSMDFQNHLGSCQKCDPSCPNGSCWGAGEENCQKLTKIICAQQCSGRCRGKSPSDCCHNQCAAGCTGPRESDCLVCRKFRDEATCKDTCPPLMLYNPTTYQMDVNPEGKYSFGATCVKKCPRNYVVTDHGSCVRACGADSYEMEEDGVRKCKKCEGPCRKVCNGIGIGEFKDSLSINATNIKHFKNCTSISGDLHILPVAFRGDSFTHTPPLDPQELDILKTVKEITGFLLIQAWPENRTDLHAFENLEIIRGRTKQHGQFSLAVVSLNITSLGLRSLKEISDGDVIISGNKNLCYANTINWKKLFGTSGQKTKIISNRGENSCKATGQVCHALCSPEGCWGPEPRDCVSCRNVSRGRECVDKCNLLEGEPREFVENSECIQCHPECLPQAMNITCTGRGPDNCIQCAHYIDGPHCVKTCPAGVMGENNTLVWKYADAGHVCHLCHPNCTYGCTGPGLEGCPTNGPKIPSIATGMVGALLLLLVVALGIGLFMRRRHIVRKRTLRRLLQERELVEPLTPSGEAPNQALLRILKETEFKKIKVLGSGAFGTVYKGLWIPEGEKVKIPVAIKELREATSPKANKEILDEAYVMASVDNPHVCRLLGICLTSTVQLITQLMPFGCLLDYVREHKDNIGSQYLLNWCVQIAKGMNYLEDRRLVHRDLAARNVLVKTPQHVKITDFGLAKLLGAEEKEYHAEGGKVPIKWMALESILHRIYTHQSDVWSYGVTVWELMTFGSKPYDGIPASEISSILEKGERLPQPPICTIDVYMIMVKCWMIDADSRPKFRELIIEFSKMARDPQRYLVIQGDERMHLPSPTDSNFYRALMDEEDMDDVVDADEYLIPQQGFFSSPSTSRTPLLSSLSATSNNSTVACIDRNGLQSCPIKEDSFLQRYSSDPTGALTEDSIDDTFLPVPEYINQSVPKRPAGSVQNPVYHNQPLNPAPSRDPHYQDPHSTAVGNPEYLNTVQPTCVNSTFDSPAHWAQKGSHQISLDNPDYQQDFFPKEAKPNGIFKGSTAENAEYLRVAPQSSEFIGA

Turning to `Cc1ccc(Oc2ccc(Nc3ncnc4sc5c(c34)CN(C(=O)C=CCN(C)C)C5C)cc2C)cn1` (single isomer, unassigned) [Compound 169], in test [1], the EC50 is 100 to 1000 nM; the “Selectivity A431 EC50/BT474 EC50” value was “C (C: ≥ 10 and < 20)”; the “Selectivity A431 EC50/HEKYVMA EC50” value was “D (D: ≥ 5 and < 10)”. Moreover, the EC50 in test [2] is < 100 nM.
`Cc1ccc(Oc2ccc(Nc3ncnc4sc5c(c34)CCN(C(=O)/C=C/CN3CC[C@H](CO)C3)C5)cc2C)cn1` [Compound 133]: in test [1], the EC50 is 100 to 1000 nM; the “Selectivity A431 EC50/BT474 EC50” value was “B (B: ≥ 20 and < 100)”; the “Selectivity A431 EC50/HEKYVMA EC50” value is “C (C: ≥ 10 and < 20)”. Further, in test [2], the EC50 was < 100 nM.
As to `Cc1ccc(Oc2ccc(Nc3ncnc4sc5c(c34)CCN(C(=O)/C=C/CN3CCCCC3(C)CO)C5)cc2C)cn1` (centres unmarked) [Compound 119], in test [1], the 50% effective concentration (EC50) is 100 to 1000 nM; the “Selectivity A431 EC50/BT474 EC50” value was “B (B: ≥ 20 and < 100)”; the “Selectivity A431 EC50/HEKYVMA EC50” value is “B (B: ≥ 20 and < 100)”. The EC50 in test [2] was < 100 nM.
In the case of `COc1ccc(Oc2ccc(Nc3ncnc4sc5c(c34)CCN(C(=O)/C=C/CN3CC[C@@H](CO)C3)C5)cc2C)cn1` [Compound 143], in test [1], the EC50 is < 100 nM; the “Selectivity A431 EC50/BT474 EC50” value was “C (C: ≥ 10 and < 20)”; the “Selectivity A431 EC50/HEKYVMA EC50” value was “E (E: >1 and < 5)”. Moreover, the EC50 in test [2] is < 100 nM.
`Cc1ccc(Oc2ccc(Nc3ncnc4sc5c(c34)C(C)CN(C(=O)C=CCN(C)C(C)(C)C)C5)cc2C)cn1` (single isomer, unassigned) [Compound 179]: in test [1], the concentration giving a half-maximal response (EC50) was < 100 nM; the “Selectivity A431 EC50/BT474 EC50” value was “B (B: ≥ 20 and < 100)”; the “Selectivity A431 EC50/HEKYVMA EC50” value is “E (E: >1 and < 5)”. For the same compound, the EC50 in test [2] was < 100 nM.
`COc1ccc(Oc2ccc(Nc3ncnc4sc5c(c34)C(C)CN(C(=O)/C=C/CN(C)C)C5)cc2C)cn1` (centres unmarked) [Compound 152, (E)-4-(dimethylamino)-1-(4-((4-((6-methoxypyridin-3-yl)oxy)-3-methylphenyl)amino)-5-methyl-5,8-dihydropyrido[4′,3′:4,5]thieno[2,3-d]pyrimidin-7(6H)-yl)but-2-en-1-one]: in test [1], the EC50 was 100 to 1000 nM; the “Selectivity A431 EC50/BT474 EC50” value is “C (C: ≥ 10 and < 20)”; the “Selectivity A431 EC50/HEKYVMA EC50” value is “C (C: ≥ 10 and < 20)”. Further, in test [2], the EC50 is < 100 nM.
Turning to `Cc1ccc(Oc2ccc(Nc3ncnc4sc5c(c34)C[C@@H](C)N(C(=O)/C=C/CN(C)C)[C@H]5C)cc2C)cn1` (racemic) [Compound 149, (E)-1-(6,8-cis-dimethyl-4-((3-methyl-4-((6-methylpyridin-3-yl)oxy)phenyl)amino)-5,8-dihydropyrido[4′,3′:4,5]thieno[2,3-d]pyrimidin-7(6H)-yl)-4-(dimethylamino)but-2-en-1-one], in test [1], the concentration for a half-maximal effect (EC50) lay within 100 to 1000 nM; the “Selectivity A431 EC50/BT474 EC50” value is “B (B: ≥ 20 and < 100)”; the “Selectivity A431 EC50/HEKYVMA EC50” value is “D (D: ≥ 5 and < 10)”. For the same compound, the concentration giving a half-maximal response (EC50) in test [2] is < 100 nM.
Regarding `Cc1ccc(Oc2ccc(Nc3ncnc4sc5c(c34)CCN(C(=O)/C=C/CN3CC[C@H](F)C3)C5)cc2C)cn1` [Compound 124], in test [1], the EC50 was < 100 nM; the “Selectivity A431 EC50/BT474 EC50” value is “B (B: ≥ 20 and < 100)”; the “Selectivity A431 EC50/HEKYVMA EC50” value is “C (C: ≥ 10 and < 20)”. Also, in test [2], the EC50 was < 100 nM.
For the compound `Cc1ccc(Oc2ccc(Nc3ncnc4sc5c(c34)C(C)N(C(=O)C=CCN(C)C)C5)cc2C)cn1` (single isomer, unassigned) [Compound 148], in test [1], the EC50 was > 10000 nM; the “Selectivity A431 EC50/BT474 EC50” value was “B (B: ≥ 20 and < 100)”; the “Selectivity A431 EC50/HEKYVMA EC50” value was “C (C: ≥ 10 and < 20)”. The EC50 in test [2] was in the range of 350 to 1000 nM.
For the compound `Cc1ccc(Oc2ccc(Nc3ncnc4sc5c(c34)CCN(C(=O)/C=C/CN3CC4CC(C3)O4)C5)cc2C)cn1` [Compound 15], in test [1], the EC50 is 100 to 1000 nM; the “Selectivity A431 EC50/BT474 EC50” value is “B (B: ≥ 20 and < 100)”; the “Selectivity A431 EC50/HEKYVMA EC50” value was “B (B: ≥ 20 and < 100)”. Further, in test [2], the EC50 is < 100 nM.
In the case of `Cc1ccc(Oc2ccc(Nc3ncnc4sc5c(c34)CCN(C(=O)/C=C/CN3CC4CCC3C4)C5)cc2C)cn1` (centres unmarked) [Compound 14], in test [1], the EC50 is < 100 nM; the “Selectivity A431 EC50/BT474 EC50” value is “D (D: ≥ 5 and < 10)”; the “Selectivity A431 EC50/HEKYVMA EC50” value is “E (E: >1 and < 5)”. The EC50 in test [2] was < 100 nM.
As to `CCN(CC)C/C=C/C(=O)N1CCc2c(sc3ncnc(Nc4ccc(Oc5ccc(C)nc5)c(C)c4)c23)C1` [Compound 131], in test [1], the EC50 is < 100 nM; the “Selectivity A431 EC50/BT474 EC50” value was “C (C: ≥ 10 and < 20)”; the “Selectivity A431 EC50/HEKYVMA EC50” value is “D (D: ≥ 5 and < 10)”. Further, the concentration giving a half-maximal response (EC50) in test [2] was < 100 nM.
For the compound `CCN(CC)C/C=C/C(=O)N1CCc2c(sc3ncnc(Nc4ccc(Oc5ccc(OC)nc5)c(C)c4)c23)C1` [Compound 137], in test [1], the EC50 lay in the range of 100 to 1000 nM; the “Selectivity A431 EC50/BT474 EC50” value is “D (D: ≥ 5 and < 10)”; the “Selectivity A431 EC50/HEKYVMA EC50” value is “D (D: ≥ 5 and < 10)”. In addition, the EC50 in test [2] was < 100 nM.
`C=CC(=O)N1Cc2sc3ncnc(Nc4ccc(Oc5ccc(C)nc5)c(C)c4)c3c2C(C)C1` (single isomer, unassigned) [Compound 145]: in test [1], the EC50 lay within 100 to 1000 nM; the “Selectivity A431 EC50/BT474 EC50” value is “C (C: ≥ 10 and < 20)”; the “Selectivity A431 EC50/HEKYVMA EC50” value is “E (E: >1 and < 5)”. In addition, in test [2], the EC50 is < 100 nM.

As usually defined, the EC50 is the concentration needed to bring the measured effect to its halfway point.
